Laboratory results as given in patent US11529337B2, “Method of treating pain” (VERTEX PHARMACEUTICALS INCORPORATED, priority 2018, dated 2022).

Key:
[1] = system: subjects with pain following bunionectomy; assay: Randomized, double-blind, placebo-controlled study of efficacy in subjects with pain following bunionectomy (Example 3); format: in vivo, human
Experimental: A randomized, double-blind, placebo-controlled, 3-arm, parallel-design study to evaluate the effect of Compound 1 on acute surgical pain was conducted. Bunionectomy is a well-established, multi-dose, surgical, acute pain model. A randomized, double-blind study design was selected to avoid observer bias and reduce symptoms or outcomes arising from the subjects' knowledge of treatment. A parallel design was considered most appropriate given the acute nature of bunionectomy surgery.
Male and female patients between the ages of 18 and 65 years (inclusive) with pain that is ≥4 on an 11-point Numeric Pain Rating Scale (NPRS) and is moderate or severe on the Verbal Categorical Rating Scale (VRS) after bunionectomy.
Investigational Drug: Compound 1. The investigational drug was administered orally in 250 mg capsules, prepared as described in Example 2. The investigational drug was administered every 12 hours (q12 h). […]
On the 11-point NPRS, a score of 0 denoted no pain, and a score of 10 denoted the worst pain intensity imaginable. […] Pain intensity also was recorded on the NPRS immediately before each administration of rescue medication. Pain intensity scores that were collected within 4 hours after a dose of rescue medication were taken as missing, and the missing values were imputed as the intensity recorded immediately before the administration of rescue medication. […]

[2] = system: subjects with pain following bunionectomy; assay: Safety and tolerability evaluations in the bunionectomy study (Example 3)
Text: Safety evaluations included adverse events, clinical laboratory assessments, clinical evaluation of vital signs, electrocardiograms, and physical examinations.

[3] = system: patients with chronic pain caused by small fiber neuropathy; assay: Randomized, double-blind, placebo-controlled 6-week study in patients with chronic pain caused by small fiber neuropathy (Example 5); format: in vivo, human
Experimental: A randomized, double-blind, placebo-controlled, 6-week study that evaluated treatment with Compound 1 (Treatment Arm) or placebo (Placebo Arm) in patients with chronic pain caused by small fiber neuropathy was conducted.
Males and females between the ages of 18 and 80 years, inclusive, with small fiber neuropathy.
Compound 1 was administered orally in 250 mg capsules, prepared as described in Example 2.
The study included a 7-day run-in period, followed a 6-week treatment period. The subjects were randomized to a Placebo Arm (43 subjects) and a Treatment Arm (46 subjects) between the run-in period and the treatment period.
During the run-in period, subjects reported their average pain and sleep interference to establish a baseline NRS pain score and DSIS score.
During the treatment period, Compound 1 was administered to the subjects in the Treatment Arm every 24 hours (q24 h) in a dose of 1250 mg. Subjects in the Placebo Arm received placebo capsules.
11-point Numeric Rating Scale (NRS). Pain intensity was evaluated using an 11-point NRS. The 11-point scale ranged from 0 (no pain) to 10 (worst imaginable pain). From Day −7 through Week 6, subjects reported their average daily pain during the last 24 hours on the NRS via electronic diary.
Daily Sleep Interference Scale (DSIS). Subjects reported pain interference with sleep using an 11-point scale ranging from 0 (none) to 10 (severe). […]

`Cc1cc(F)ccc1Oc1cc(C(F)(F)F)ccc1C(=O)Nc1ccn(COP(=O)(O)O)c(=O)c1` [Compound 1, (4-(2-(4-fluoro-2-methylphenoxy)-4-(trifluoromethyl)benzamido)-2-oxopyridin-1(2H)-yl)methyl dihydrogen phosphate] was tested, and the “Relief of acute pain compared to placebo (SPID24), in words” value ([1]; Investigational Arm versus placebo) was “statistically significant relief of acute pain compared to placebo”, the “Subjects who discontinued due to lack of efficacy” value ([1]; number (percentage) of subjects assigned to the arm) was 6 (7.5%) and the “Tolerability, in words” value ([2]; bunionectomy study) was “generally well tolerated”. For the same compound, the Gastrointestinal adverse events ([2]; share of subjects in the arm) was 13%, the “Subjects with ≥30% reduction in weekly average of daily pain intensity on NRS” value ([3]; Week 6, total = subjects with data at Week 6) was 45.0% (18/40) and the “Treatment difference in NRS pain intensity versus placebo at Week 1” value ([3]; observed as early as Week 1) was “greater than 1 point”.
